Data on six molecules can be found in US9682078B2, “Compositions and methods for tissue engineering and cell based therapies” (University of Virginia Patent Foundation, priority 2011, dated 2017).

In one data set the test system is smooth muscle. Particulars: daily injections; cited from earlier work.
The test system of another data set is bone marrow cells. Nature of the data set: Transwell migration of bone marrow cells toward SDF-1. It is filed as cell-based, rat. Particulars: pre-treated 10 ng/ml 30 minutes. Here is the method:
Bone marrow cells were collected from the tibia of Sprague Daley rats (Charles River), scrum starved for 2 hours, and the cell suspension at 2×10^6 cells/ml was pre-treated with serum-free medium, or 10 ng/ml FTY720-P (Cayman) for 30 minutes and then were re-suspended in serum-free DMEM (Invitrogen). 100 μl of the pre-treated cell suspension was added to the top of 5 μm transwell inserts (Costar) in a 24-well plate. The bottom of the wells contained 600 μl of serum-free DMEM or 12.5 nM SDF-1 (ProspecBio). The cells were incubated at 37° C. for 4 hours, and then the number of cells at the top and the bottom of the transwells were counted using an automatic cell counter. The cells that migrated toward SDF-1 after pre-treatment with FTY720-P were collected from the bottom of the transwells and treated with monoclonal antibodies to CD45, CD11b and CD90 prior to flow analysis. Flow cytometry was performed according to standard procedures and was analyzed on a 9 color CyAn flow cytometer.

The conditions of data set [1]: in vivo; cited from earlier work.
The conditions of data set [2]: in the absence of a carrier protein; cited from earlier work.
In another data set the test system is donor (GFP+) cells. The data set is described as follows: Bone marrow transplant after lethal irradiation with equal number of mobilized cells. Particulars: two-week chimerism after competitive BMT with equal numbers of mobilized cells; FIG. 10D.
In data set [3] the test system is Lineage1−/Sca1+/c-kit+ (LSK) hematopoietic stem cells. Nature of the data set: Transwell migration of sorted LSK hematopoietic stem cells toward SDF-1 and S1P. It is filed as cell-based, mouse. Particulars: cells pre-treated with compound (15 nM for VPC01091, VPC01211). Here is the method: Whole bone marrow cells were harvested from C57Bl/6 mice tibiae. They were pre-labeled with antibodies against Lineage 1, Sca1, and c-kit and the LSK subset were sorted, serum starved, and plated at equal concentration after pre-treatment with FTY720. Migration toward media, SDF1, and S1P was calculated.
Hematopoietic stem cell migration was also studied (FIG. 17). Lineage1−/Sca1+/c-kit+ (LSK) hematopoietic stem cells were sorted and serum starved for two hours. Cells were pre-treated with 15 nM VPC01211 or not and plated for transwell migration assays toward plain media, SDF-1 or S1P.

A further data set concerns the target S1P3 receptor (Homo sapiens, UniProt Q99500). To be noted: cited from earlier work.
The next data set deals with 5 mm cranial defects. Nature of the data set: Rat cranial critical size bone defect, microCT and flow cytometry. The format is in vivo. Here is the method: 5 mm cranial defects were made in 36 nine weeks old Sprague Daley rats, which were divided into 4 groups (n=9). The rats were treated with a systemic dose of 1 mpk VPC01091, FTY720 coated semi-circular allograft, FTY720 coated semi-circular allograft+a systemic dose of 1 mpk VPC01091 or left untreated. VPC01091 was given the day after surgery and 3 weeks post-surgery. Hemavet (Drew Scientifics) was used to measure the concentrations of blood cells at days 0, week 1 and week 2 (n=6) (data not shown). The amount of bone regeneration was measured bi-weekly with microCT imaging (n=3-9). Flow cytometry was performed according to standard procedures on the tissue harvested from the defect sites at week 3 (n=3), and from peripheral blood at week 6 (n=3). Monoclonal antibodies (Invitrogen, Abeam) for rat CD45, CD11b, CD54, CD90 were used in both cases. Mason's Trichrome and H&E staining were done for done for all groups (n=3).
In general terms: Flow cytometry measures light scatter and fluorescence of single cells or particles in a stream.

In another data set the target is S1P1 receptor (Homo sapiens, UniProt P21453). To be noted: cited from earlier work.
The test system of data set [4] is CD45+/CD11b+/Ly6Chigh/CX3CR1low inflammatory monocytes (IM). Nature of the data set: Transwell migration of sorted inflammatory monocytes after FTY720 pre-treatment. The format is cell-based, mouse. To be noted: FIG. 6B. The source says:
(§1) CD45^+/CD11b^+/Ly6C^low/CX3CR1^high anti-inflammatory monocytes (AM) and CD45^+/CD11b^+/Ly6C^high/CX3CR1^low inflammatory monocytes (IM) (FIG. 6C) were sorted from mouse marrow. […] In vivo, in tissue from the murine dorsal skinfold window chamber, the recruitment of IMs to dorsal tissue was attenuated with local FTY720 application from PLAGA films (FIG. 6D). Cells that are CD45^+/CD11b^+/Ly6C^high/CX3CR1^low/CD105^+ and have a decreasing expression of Sca1 (a progenitor cell marker) are consistent with endothelial progenitor derived endothelial cells (EPC-ECs). […] Local FTY720 stimulation attenuates the infiltration of inflammatory cells and recruits regenerative stem cells. (See FIGS. 3-6).

In data set [5] the test system is ischemic spinotrapezius muscle. The data set is described as follows: Arterial ligation of spinotrapezius muscle with PLAGA film implantation, confocal microscopy. To be noted: FIG. 7. The format is in vivo, mouse. From the text:
(§2) Backpacks were implanted with PLAGA films and collagenase was used to digest dorsal tissue directly around the implants after 3 days to create single cell suspensions. Flow cytometry was used to assess cellular content. A feeder artery to the spinotrapezius muscle was ligated, creating an ischemic environment, and confocal microscopy on whole-mounted tissue was used to assess CX3CR1 expression in the muscle (FIG. 5).

Data set [6] deals with dorsal microvasculature. To be noted: sustained release from 50:50 PLAGA films (1:200 wt/wt); cited from earlier work.
Data set [7] has as its system CD45+/CD11b+/Ly6Clow/CX3CR1high anti-inflammatory monocytes (AM). The data set is described as follows: Transwell migration of sorted anti-inflammatory monocytes after FTY720 pre-treatment. It is filed as cell-based, mouse. Particulars: FIG. 6A.
Excerpt: as §1

The test system of another data set is dorsal tissue. Nature of the data set: Murine dorsal skinfold window chamber with PLAGA films, flow cytometry of dorsal tissue. The format is in vivo, mouse. To be noted: local application from PLAGA films. Here is the method: (§3) 1 mm poly(lactic-co-glycolic acid) PLAGA films loaded with S1P receptor compounds are placed within the window chamber as shown. Repeated measurements of the same vessel networks are recorded and quantified over a 7-day time course using intravital microscopy. (FIG. 3).
as §2

Data set [8] relates to critical size calvarial bone defects. Particulars: 3D PLAGA scaffolds delivering FTY720; cited from earlier work.
Data set [9] concerns dorsal microvasculature. The data set is described as follows: Murine dorsal skinfold window chamber, intravital microscopy of microvascular remodeling. It is filed as in vivo, mouse. Particulars: S1P3 selectively antagonized on marrow-derived cells (BM S1P3−/−); 3 days post-implantation; FIG. 8. Here is the method: as §3
For data set [10], the system named is whole BMCs on FBMD-1 stromal cells. The data set is described as follows: Cobblestone area-forming cell assay. Particulars: BMCs pre-treated 30 minutes; FIG. 19. The format is cell-based, mouse. From the text:
Ordinate—% Positive Wells.

Where [11] appears, read: PLAGA film, ligated feeder artery.

Each structure is given as a SMILES string.

Sequence of S1P3 receptor (Q99500 whole entry): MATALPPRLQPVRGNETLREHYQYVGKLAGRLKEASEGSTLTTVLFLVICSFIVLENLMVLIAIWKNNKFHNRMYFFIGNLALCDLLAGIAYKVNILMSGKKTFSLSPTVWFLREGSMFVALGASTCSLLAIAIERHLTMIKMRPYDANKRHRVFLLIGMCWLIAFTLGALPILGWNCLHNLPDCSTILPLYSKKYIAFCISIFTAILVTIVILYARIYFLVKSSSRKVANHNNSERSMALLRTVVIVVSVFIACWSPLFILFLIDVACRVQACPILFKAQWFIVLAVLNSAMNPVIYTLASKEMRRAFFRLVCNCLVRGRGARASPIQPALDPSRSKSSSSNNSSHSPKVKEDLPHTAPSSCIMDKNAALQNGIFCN
Sequence of S1P1 receptor (P21453 whole entry): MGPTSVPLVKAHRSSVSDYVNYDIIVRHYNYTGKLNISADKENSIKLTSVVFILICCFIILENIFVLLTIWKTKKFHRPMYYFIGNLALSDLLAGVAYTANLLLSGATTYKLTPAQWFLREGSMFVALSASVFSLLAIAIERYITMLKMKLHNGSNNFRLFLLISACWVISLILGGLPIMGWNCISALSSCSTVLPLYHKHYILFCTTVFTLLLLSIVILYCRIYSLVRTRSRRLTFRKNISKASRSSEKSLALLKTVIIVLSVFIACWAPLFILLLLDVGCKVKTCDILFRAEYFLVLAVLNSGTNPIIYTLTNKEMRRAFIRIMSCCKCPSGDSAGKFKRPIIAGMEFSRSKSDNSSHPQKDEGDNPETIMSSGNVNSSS
Experimental for donor (GFP+) cells: WT mice were irradiated & reconstituted with mobilized peripheral blood cells from GFP+ mice. After varying amounts of time, blood was collected via the retro-orbital sinus and bone marrow was harvested to assess chimerism over time.
100 μL blood was plated on methocult stem cell differentiation medium and after 6 days colony forming units were quantified. […] Cells tested included—Host cells, PB donor cells and BM donor cells were tested. Treatments included—AMD cells, A+V cells, AMD Sca1+, A+V Sca1+, AMD CD45+, A+V CD45+, AMD CD11b+, and A+V CD11b+.

In the case of `CCCCCCCCc1cccc(NC(=O)[C@H](N)CCP(=O)(O)O)c1` [VPC44116], the “smooth muscle proliferation and migration” value in the data set with smooth muscle is recorded as “significantly decreased”.
On to `CCCCCCCCc1ccc(CC[C@](N)(CO)COP(=O)(O)O)cc1` [FTY720-P], for which, in the data set on bone marrow cells (12.5 nM SDF-1, 4 hours, FIG. 11E), the “total number of cells migrating toward SDF-1” value is “significantly increased”. Moreover, in the data set on bone marrow cells (FIG. 11F), the “percentage of CD90+; CD45−/CD11b− cells migrating toward SDF-1” value is recorded as “higher percentage”.
For `CCCCCCCCCCCCC/C=C/[C@@H](O)[C@@H](N)COP(=O)(O)O` [S1P, Sphingosine 1-phosphate], in data set [1], the half-life in blood result is listed as “less than 1 hour”. Further, in [2], the “solubility in aqueous solutions” value is “insoluble”.
Take `CCCCCCCCc1ccc(C2CCC(N)(CO)C2)cc1` (stereo not shown) [VPC01091]: in the data set on donor (GFP+) cells, the “engraftment and repopulation efficiency in vivo” value was “does not impair”. Moreover, in data set [3], the “HSC migration / homing toward S1P” value was “sensitized” and the “HSC migration / homing toward SDF-1” value was “desensitized”. The “activity at S1P3 receptor” value on S1P3 receptor was “antagonist”. The “bone regeneration compared to the empty defect controls” value in the data set on 5 mm cranial defects (systemic 1 mpk, day after surgery and 3 weeks post-surgery, microCT, FIG. 11) was “substantial bi-weekly increase”. For the same molecule, in the data set with 5 mm cranial defects (week 3, FIG. 12a), the “percentage of CD54 and CD90 positive cells in the defect region” value is “increase”. Also, in the data set with 5 mm cranial defects (week 6, FIG. 12b), the “percentage of CD54 and CD90 positive cells in the blood” value is “increase”. In addition, the “activity at S1P1 receptor” value on S1P1 receptor is given as “agonist”.
Take `CCCCCCCCc1ccc(CCC(N)(CO)CO)cc1` [FTY720, 2-amino-2-[2-(4-octylphenyl)ethyl]propane 1,3-diol]: in data set [4], the “migration of IMs towards S1P” value is reported as “decreased” and the “migration of IMs towards SDF-1” value is “decreased”. Moreover, in data set [5] (CX3CR1-eGFP mice), the “recruitment of vessel-associated CX3CR1+ cells” value is listed as “recruitment of vessel-associated CX3CR1+ cells”. Also, in data set [5] (setting [11]), the “remodeling in ischemic muscle” value is “induces remodeling in ischemic muscle” and the tortuosity of vessels entry was “promotes tortuosity of vessels”. Moreover, the half-life entry in data set [1] is recorded as “approximately 7 days”. In the data set on dorsal microvasculature [6], the “arteriole formation and enlargement” value was “promotes formation of new arterioles and structural enlargement of existing arterioles”. In addition, in [3], the “HSC migration / homing toward S1P” value was “abolishes” and the “HSC migration / homing toward SDF-1” value was “improves”. Also, the “migration of AMs towards SDF-1” value in data set [7] is recorded as “increased”. For the same molecule, the “EPC-ECs in dorsal tissue” value in the data set on dorsal tissue is reported as “increased”. The “recruitment of IMs to dorsal tissue” value in the data set with dorsal tissue (FIG. 6D) is “attenuated”. Moreover, in [8], the osseous tissue ingrowth result is recorded as “significantly increases” and the “proportion of mature smooth muscle cell-invested microvessels within the bony defect” value is reported as “significantly increases”. The FTY720-induced microvascular remodeling result in the data set on dorsal microvasculature [9] is given as “impaired”.
In the case of `CCCCCCCCc1ccc(C2CCC(N)(COP(=O)(O)O)C2)cc1` (stereo not shown) [VPC01211], in data set [3], the “HSC migration / homing toward S1P” value is listed as “did not affect” and the “HSC migration / homing toward SDF-1” value is recorded as “abrogated”. Further, in data set [10], the “adhesion / engraftment on bone marrow stromal cell layer” value was “less engraftment than AMD3100”.
